From PubChem BioAssay (NCI)
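Five compound concentrations were applied to cells in 96-well plates for 48 hours; endpoints were derived by simple linear interpolation of the resulting dose-response curve. TGI is the concentration that stops growth completely.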

How the values were obtained:
Test in all cases: NCI anticancer screen, dose series, 48 h
[1] = tested on: OVCAR-3 ovarian
[2] = tested on: NCI-H460 lung
[3] = tested on: TK-10 renal
[4] = tested on: U251 CNS
[5] = tested on: CAKI-1 renal
[6] = tested on: SK-MEL-5 melanoma
[7] = tested on: HCC-2998 colon
[8] = tested on: ACHN renal
[9] = tested on: SK-OV-3 ovarian
[10] = tested on: LOX IMVI melanoma
[11] = tested on: HOP-92 NSCLC
[12] = tested on: MOLT-4 leukemia
[13] = tested on: UACC-62 melanoma
[14] = tested on: DU-145 prostate
[15] = tested on: SNB-19 CNS
[16] = tested on: SF-268 CNS
[17] = tested on: MDA-MB-231 breast
[18] = tested on: NCI/ADR-RES ovarian
[19] = tested on: SK-MEL-28 melanoma

Structure (SMILES)	TGI [1] [µM]	TGI [2] [µM]	TGI [3] [µM]	TGI [4] [µM]	TGI [5] [µM]	TGI [6] [µM]	TGI [7] [µM]	TGI [8] [µM]	TGI [9] [µM]	TGI [10] [µM]	TGI [11] [µM]	TGI [12] [µM]	TGI [13] [µM]	TGI [14] [µM]	TGI [15] [µM]	TGI [16] [µM]	TGI [17] [µM]	TGI [18] [µM]	TGI [19] [µM]
CCOP(=O)(OCC)/C(=C/NC(=S)c1ccncc1)C(=O)OC	> 100	> 100	> 100	> 100	> 100	> 100	> 100	> 100	> 100	> 100	> 100	> 100	> 100	> 100	> 100	> 100	> 100	> 100	
Clc1ccc(OCc2nnc(CCCCCCCCc3nnc(COc4ccc(Cl)cc4Cl)n3Nc3ccccc3)n2Nc2ccccc2)c(Cl)c1	25.4	21.1	> 75.1	27.1	49.3	7.05	20.8	46.1	39.8	34.3	46.3	> 100	15.7	> 62.7	> 61.9	32.1	24.4	51.8	19
CCCCCCCCCCCCN1[C@H]2CCC[C@H]2C(O)[C@@H]2CCC[C@@H]21 (stereo partly drawn)	> 100	> 100		> 100	> 100	> 100	> 100	> 100	> 100	> 100	> 100	> 100	> 100	> 100	> 100	> 100	> 100	> 100	> 100
O=C1c2ccccc2C(=O)N1CC1S(=O)(=O)OCCOS1(=O)=O	> 100	> 100	> 100	> 100	> 100	> 100	> 100	> 100	> 100	> 100	> 100	> 100	> 100	> 100	> 100	> 100	> 100	> 100	> 100
CN(C)CCCNc1ccc2c(=O)n(CCN(C)C)c(=O)n3c4ccccc4c(=O)c1c23	3.35	1.06	2.28	2.15	0.944	2.19	0.267	1.47	4.9	0.343	7.79		1.56	0.511	3.02	11.8	0.496	4.02	2.57
O=C1/C(=C/c2ccc(OC(=O)c3ccccc3)cc2)CCC/C1=C\c1ccc(OC(=O)c2ccccc2)cc1	> 100	> 100	> 100	> 100	> 100	> 100	> 100	> 100		> 100	> 100	> 100	> 100	> 100	> 100	> 100	> 100	> 100	> 100
CC1=NN(c2cccc(Cl)c2)C2(SCC(=O)N2c2nc3ccccc3s2)/C1=C\c1ccc(N(C)C)cc1 (stereo not drawn)	> 100	> 100	> 100	> 100	> 100	> 100	> 100	84.1	39.6	> 100	79.9	> 100		> 100		> 100	> 100	> 100	> 100
COc1cc(C2SCC(=O)N2c2ccc(-n3c(-c4ccccc4)nc4ccccc4c3=O)cc2)cc(OC)c1OC (stereo not drawn)	> 100	> 100	> 100	> 100	> 100	> 100	> 100	> 100	> 100	> 100	84.2	> 100	> 100	> 100	> 100	> 100	> 100	> 100	> 100
Nc1nc(Cl)c(/C=N\O)c(NCC2(CO)CCC2)n1	> 100	> 100	> 100	> 100	> 100	> 100	> 100	> 100		> 100	> 100	81.2		> 100	> 100	> 100	> 100	> 100	> 100
CCO/C=N\c1c(C#N)c(-c2ccc(Cl)cc2)cn1-c1ccc(C)cc1	> 100	> 100	> 100	> 100	> 100	> 100	> 100	> 100	> 100	> 100	> 100		> 100	> 100	> 100	> 100	> 100	> 100	> 100
CO[C@@H]1C[C@H]2[C@@H]3CC[C@H]([C@@H](C)CO)[C@@]3(C)CC[C@@H]2[C@@]2(C)CC[C@H]3C[C@]312	> 100	43.1	> 100	27.7	> 100	31.1	> 100	66.4		34.6	58.5	> 100		> 100	> 100	> 100	80.7	93	83.5
COc1ccc(/C=C2\CN(C)C/C(=C\c3ccc(OC)cc3)C2=O)cc1	> 100	> 100	> 100	> 100	> 100	> 100	> 100	> 100		> 100	> 100	> 100	> 100	> 100	> 100	> 100	> 100	> 100	> 100
CC1(C)CC2=C(Sc3ccccc3N2)C(=O)C1C(=O)C(=O)Nc1cccc([N+](=O)[O-])c1 (stereo not drawn)	> 100	> 100	> 100	> 100	> 100	> 100	> 100	> 100	> 100	> 100	> 100	> 100	> 100	> 100	> 100	> 100	> 100	> 100	> 100
CN1C/C(=C\c2cccs2)C2=NN(C)C(c3cccs3)C2C1 (stereo not drawn)	> 100	> 100	> 100	> 100	> 100	> 100	> 100	> 100	> 100	> 100	> 100	> 100	> 100	> 100	> 100	> 100	> 100	> 100	> 100
Nc1ccc2c(=O)cc(-c3cccs3)[nH]c2n1	> 100	> 100	> 100	> 45.6	> 100	21	27.5	> 100	> 100	> 45.4	> 100	> 35.5	> 100	> 100	> 100	> 100	> 100	5.5	> 100
O=S(=O)(c1ccccc1)C(c1ccc2ccccc2n1)S(=O)(=O)c1ccccc1	> 100	> 100	> 100	> 100	> 100	> 100	> 100	> 100		> 100	> 100	> 100		> 100	> 100	> 100	> 100	> 100	> 100
COc1c(OC(C)C)c(OC(C)C)c2oc(=O)n3c2c1C(c1ccccc1-n1c(C)ccc1C)C=C3 (stereo not drawn)	> 100	> 100	> 100	> 100	> 100	> 100	> 100	> 100	> 100	59	> 100	> 100	> 100	> 100	> 100	> 100	> 100	> 100	> 100
CC(O)c1cc2c(s1)C(=O)c1ccsc1C2=O (stereo not drawn)	0.169		1.32	0.415	1.96	0.0198	0.576	0.267	5.46		0.967	0.594	0.0733	0.0947	0.553	0.679	0.624	0.743	0.0328
CC(C)(Oc1ccccc1)C(=O)Sc1c(-c2ccccc2)c(=O)n(-c2ccccc2)c(=S)n1-c1ccccc1	96.4	67.3	> 100	56.5	> 100		> 100	> 100	87.1	> 100	> 100	> 100	> 100	> 100	> 100	80.2	73.8	> 100	> 100
Clc1nssc1=Nc1nonc1-c1ccccc1	> 100	> 100		> 100	34.6	37	> 100	36.1	> 100	> 100	> 100	69.8	> 100	53.5	> 100		34.5	98.3	> 100
CCN(CC)CCC(=O)c1ccc(C)cc1	33.1	> 100		> 100		25.8	> 100	41	> 100	> 100	36	52.2	> 100	> 100	> 100	> 100	29	65.7	29.9
O=C(O)C1CCCCC1C(=O)Nn1cnnc1 (stereo not drawn)	> 100		> 100	> 100		> 100	> 100	> 100	> 100	> 100	> 100	> 100	> 100	> 100	> 100	> 100	> 100	> 100	> 100
COc1ccc(P2(=S)Oc3ccccc3-c3ccccc3O2)cc1	0.493	> 100	> 100	> 100		> 79.7	9.56	> 100		> 100	85.3	> 100	> 100	> 100	> 100	> 100	> 100	> 100	> 100
Cc1ccc(N2C(=O)C=C(C3=C(O)C(=O)N(c4ccc(C)cc4)C3=O)C2=O)cc1	> 100	> 100	> 100	> 100		> 100	> 100	> 100	> 100	> 100	> 100	> 100	> 100	> 100	> 100	> 100	> 100	> 100	> 100
O=c1c2cc(-c3ccccc3)sc2nc2n1N=C(c1ccc(Cl)cc1)CS2	> 100	> 100	> 100	> 100	> 100	> 100	> 100	> 100	> 100	> 100	> 100	> 100	> 100	> 100		> 100	> 100	> 100	> 100
